For one molecule, serum corticosterone levels results are on record in paper PMC11123956, “Nobiletin Stimulates Adrenal Hormones and Modulates the Circadian Clock in Mice” (Nutrients, 2024).

In the assay the test system is serum corticosterone. Nature of the assay: Serum corticosterone ELISA after i.p. injection. In kind it is in vivo, mice. To be noted: 100 mg/kg i.p. at ZT3, 1 h after administration. The method, then: Male C57BL/6J mice (7 weeks old) were purchased from Charles River Japan (Kanagawa, Japan) and used for the serum hormone assay and RT-PCR. Male ICR mice were purchased from Tokyo Laboratory Animals Science Co., Ltd. (Tokyo, Japan), and female PERIOD2::LUCIFERASE (PER2::LUC) knock-in mice (ICR background) bred at Waseda University were used for blood glucose measurements and in vivo imaging assays, respectively. The mice were all housed under conditions of controlled temperature (23 °C ± 3 °C), humidity (50% ± 20%), and lighting (lights on from 07:00 to 19:00 at Taisho Pharmaceutical Co., Ltd. or from 08:00 to 20:00 at Waseda University). In the 24 h cycle, Zeitgeber time 0 (ZT0) was designated as the time when the lights were turned on, and ZT12 was designated as the time when the lights were turned off. […]
Serum corticosterone, adrenaline, and adreno-corticotropic hormone (ACTH) levels, and corticotropin releasing factor (CRF) in the hypothalamus, were measured using enzyme-linked immunosorbent assay (ELISA). […] Blood glucose levels were measured using a Glucose PILOT kit (Aventir Biotech, LLC, Carlsbad, CA, USA). The range of blood glucose that could be precisely measured with the kit was 20–600 mg/dL. […]
In general terms: An ELISA detects its analyte on a solid surface through an enzyme-linked reagent.

With `COc1ccc(-c2cc(=O)c3c(OC)c(OC)c(OC)c(OC)c3o2)cc1OC` [nobiletin], the serum corticosterone levels result is listed as “increase”.
